Experimental data: PubChem BioAssay AID2060490 (Molecular Pharmacology Branch, DTP, NCI, 2025)

Test system: 885512-296-R-J2-PDC complex spheroid viability
Assay: Anticancer human tumor 885512-296-R-J2-PDC patient-derived breast carcinoma cell line growth inhibition [GQUAD]
Details: for IC50: curve of first compound; for viability, T/C: stronger effect = lower value
Outline: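 Multi-cell-type spheroids of tumor cells with HUVEC and mesenchymal stem cells, treated with drug combinations. Concentrations descend in half-log steps from near clinical Cmax, or from 10 microM where Cmax is unknown; viability read-out.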

[1] = second compound 0.0316 µM, first compound 0.0316 µM
[2] = second compound 0.0316 µM, first compound 0.1 µM
[3] = second compound 0.0316 µM, first compound 0.316 µM
[4] = second compound 0.0316 µM, first compound 1 µM
[5] = second compound 0.0316 µM, first compound 3.16 µM
[6] = second compound 0.0316 µM, first compound 10 µM
[7] = second compound 0.1 µM, first compound 0.0316 µM
[8] = second compound 0.1 µM, first compound 0.1 µM
[9] = second compound 0.1 µM, first compound 0.316 µM
[10] = second compound 0.1 µM, first compound 1 µM
[11] = second compound 0.1 µM, first compound 3.16 µM
[12] = second compound 0.1 µM, first compound 10 µM
[13] = second compound 0.316 µM, first compound 0.0316 µM
[14] = second compound 0.316 µM, first compound 0.1 µM
[15] = second compound 0.316 µM, first compound 0.316 µM
[16] = second compound 0.316 µM, first compound 1 µM
[17] = second compound 0.316 µM, first compound 3.16 µM
[18] = second compound 0.316 µM, first compound 10 µM
[19] = second compound 1 µM, first compound 0.0316 µM
[20] = second compound 1 µM, first compound 0.1 µM
[21] = second compound 1 µM, first compound 0.316 µM
[22] = second compound 1 µM, first compound 1 µM
[23] = second compound 1 µM, first compound 3.16 µM
[24] = second compound 1 µM, first compound 10 µM
[25] = second compound 3.16 µM, first compound 0.0316 µM
[26] = second compound 3.16 µM, first compound 0.1 µM
[27] = second compound 3.16 µM, first compound 0.316 µM
[28] = second compound 3.16 µM, first compound 1 µM
[29] = second compound 3.16 µM, first compound 3.16 µM
[30] = second compound 3.16 µM, first compound 10 µM
[31] = second compound 10 µM, first compound 0.0316 µM
[32] = second compound 10 µM, first compound 0.1 µM
[33] = second compound 10 µM, first compound 0.316 µM
[34] = second compound 10 µM, first compound 1 µM
[35] = second compound 10 µM, first compound 3.16 µM
[36] = second compound 10 µM, first compound 10 µM
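Further: spheroids exposed to the compounds for one week.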
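Wherever viability, T/C is given: percent of tumor spheroid viability relative to DMSO vehicle control wells.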

COc1cccc2c1C(=O)c1c(O)c3c(c(O)c1C2=O)CC(O)(C(=O)CO)CC3OC1CC(N)C(O)C(C)O1 (stereo not given) + Cc1cnc(CNC(=O)c2c(=O)c3ccc(N4CCCN(C)CC4)nc3n3c2sc2ccccc23)cn1
IC50 (second compound 0.0316 µM): 60.1 nM | IC50 (second compound 0.1 µM): < 31.6 nM | IC50 (second compound 0.316 µM): < 31.6 nM | IC50 (second compound 1 µM): < 31.6 nM | IC50 (second compound 3.16 µM): < 31.6 nM | IC50 (second compound 10 µM): < 31.6 nM | viability, T/C [1]: 71% | viability, T/C [2]: 30.1% | viability, T/C [3]: 21.9% | viability, T/C [4]: 4.72% | viability, T/C [5]: 0.41% | viability, T/C [6]: 2.74% | viability, T/C [7]: 50.4% | viability, T/C [8]: 27.2% | viability, T/C [9]: 20.9% | viability, T/C [10]: 10.3% | viability, T/C [11]: 0.59% | viability, T/C [12]: 2.89% | viability, T/C [13]: 28.2% | viability, T/C [14]: 23.7% | viability, T/C [15]: 18.5% | viability, T/C [16]: 8.18% | viability, T/C [17]: 0.4% | viability, T/C [18]: 1.91% | viability, T/C [19]: 19.8% | viability, T/C [20]: 25.2% | viability, T/C [21]: 13.7% | viability, T/C [22]: 3.8% | viability, T/C [23]: 0.09% | viability, T/C [24]: 0.32% | viability, T/C [25]: 26.7% | viability, T/C [26]: 25.6% | viability, T/C [27]: 15.1% | viability, T/C [28]: 0.12% | viability, T/C [29]: 0.12% | viability, T/C [30]: 0.15% | viability, T/C [31]: 0.07% | viability, T/C [32]: 0.14% | viability, T/C [33]: 0.22% | viability, T/C [34]: 0.15% | viability, T/C [35]: 0.2% | viability, T/C [36]: 0.21%

CC1COCCN1c1cc(C2(O)CC3CCC(C2)O3)c2cnn(-c3ccn[nH]3)c2n1 (stereo not given) + Cc1[nH]c2ccc(F)cc2c1-c1nc2c3cccnc3c3ncccc3c2[nH]1
IC50 (second compound 0.0316 µM): < 31.6 nM | IC50 (second compound 0.1 µM): < 31.6 nM | IC50 (second compound 0.316 µM): < 31.6 nM | IC50 (second compound 1 µM): < 31.6 nM | IC50 (second compound 3.16 µM): < 31.6 nM | IC50 (second compound 10 µM): < 31.6 nM | viability, T/C [1]: 34.7% | viability, T/C [2]: 5.25% | viability, T/C [3]: 3.32% | viability, T/C [4]: 4.26% | viability, T/C [5]: 6.56% | viability, T/C [6]: 9.72% | viability, T/C [7]: 29.1% | viability, T/C [8]: 4.51% | viability, T/C [9]: 2.65% | viability, T/C [10]: 4.14% | viability, T/C [11]: 6.29% | viability, T/C [12]: 8.64% | viability, T/C [13]: 14.5% | viability, T/C [14]: 3.01% | viability, T/C [15]: 3.13% | viability, T/C [16]: 3.89% | viability, T/C [17]: 7.17% | viability, T/C [18]: 8.72% | viability, T/C [19]: 3.34% | viability, T/C [20]: 3.2% | viability, T/C [21]: 2.99% | viability, T/C [22]: 3.85% | viability, T/C [23]: 7.13% | viability, T/C [24]: 4.46% | viability, T/C [25]: 1.99% | viability, T/C [26]: 1.52% | viability, T/C [27]: 2.56% | viability, T/C [28]: 3.64% | viability, T/C [29]: 4.56% | viability, T/C [30]: 3.61% | viability, T/C [31]: 1.09% | viability, T/C [32]: 1.19% | viability, T/C [33]: 1.76% | viability, T/C [34]: 2.85% | viability, T/C [35]: 4.02% | viability, T/C [36]: 3.55%

O=c1[nH]cc(F)c(=O)[nH]1 + CN(C)c1ccc(Nc2c3ccc(NC(=O)CCN4CCCC4)cc3nc3cc(NC(=O)CCN4CCCC4)ccc23)cc1
IC50 (second compound 0.0316 µM): > 10000 nM | IC50 (second compound 0.1 µM): > 10000 nM | IC50 (second compound 0.316 µM): > 10000 nM | IC50 (second compound 1 µM): > 10000 nM | IC50 (second compound 3.16 µM): > 10000 nM | IC50 (second compound 10 µM): < 31.6 nM | viability, T/C [1]: 100% | viability, T/C [2]: 92.7% | viability, T/C [3]: 91.6% | viability, T/C [4]: 98.8% | viability, T/C [5]: 58.7% | viability, T/C [6]: 64.3% | viability, T/C [7]: 101% | viability, T/C [8]: 108% | viability, T/C [9]: 117% | viability, T/C [10]: 96.4% | viability, T/C [11]: 59.5% | viability, T/C [12]: 60.1% | viability, T/C [13]: 105% | viability, T/C [14]: 98.7% | viability, T/C [15]: 120% | viability, T/C [16]: 102% | viability, T/C [17]: 62.3% | viability, T/C [18]: 60% | viability, T/C [19]: 96.4% | viability, T/C [20]: 102% | viability, T/C [21]: 97.5% | viability, T/C [22]: 84% | viability, T/C [23]: 55.8% | viability, T/C [24]: 58.4% | viability, T/C [25]: 90.9% | viability, T/C [26]: 96.9% | viability, T/C [27]: 104% | viability, T/C [28]: 77.9% | viability, T/C [29]: 64.3% | viability, T/C [30]: 59.1% | viability, T/C [31]: 24.8% | viability, T/C [32]: 20.1% | viability, T/C [33]: 19.2% | viability, T/C [34]: 25.5% | viability, T/C [35]: 23.2% | viability, T/C [36]: 18%

O=C(NO)c1cnc(N2CCN(S(=O)(=O)c3ccc4ccccc4c3)CC2)nc1 + Cc1cnc(CNC(=O)c2c(=O)c3ccc(N4CCCN(C)CC4)nc3n3c2sc2ccccc23)cn1
IC50 (second compound 0.0316 µM): 64.4 nM | IC50 (second compound 0.1 µM): < 31.6 nM | IC50 (second compound 0.316 µM): < 31.6 nM | IC50 (second compound 1 µM): < 31.6 nM | IC50 (second compound 3.16 µM): < 31.6 nM | IC50 (second compound 10 µM): < 31.6 nM | viability, T/C [1]: 65.9% | viability, T/C [2]: 38.7% | viability, T/C [3]: 23.6% | viability, T/C [4]: 5.79% | viability, T/C [5]: 0.51% | viability, T/C [6]: 0.13% | viability, T/C [7]: 42.8% | viability, T/C [8]: 37.7% | viability, T/C [9]: 27.8% | viability, T/C [10]: 6.31% | viability, T/C [11]: 0.49% | viability, T/C [12]: 0.43% | viability, T/C [13]: 22.8% | viability, T/C [14]: 19.5% | viability, T/C [15]: 21.7% | viability, T/C [16]: 7.7% | viability, T/C [17]: 0.43% | viability, T/C [18]: 0.1% | viability, T/C [19]: 19.3% | viability, T/C [20]: 14.9% | viability, T/C [21]: 13.7% | viability, T/C [22]: 0.1% | viability, T/C [23]: 0.07% | viability, T/C [24]: 0.11% | viability, T/C [25]: 10% | viability, T/C [26]: 6.5% | viability, T/C [27]: 0.13% | viability, T/C [28]: 0.1% | viability, T/C [29]: 0.09% | viability, T/C [30]: 0.12% | viability, T/C [31]: 0.07% | viability, T/C [32]: 0.15% | viability, T/C [33]: 0.15% | viability, T/C [34]: 0.12% | viability, T/C [35]: 0.15% | viability, T/C [36]: 0.17%

C#Cc1c(F)ccc2cc(O)cc(-c3ncc4c(N5CC6CCC(C5)N6)nc(OCC56CCCN5CC(F)C6)nc4c3F)c12 (stereo not given) + Cc1[nH]c2ccc(F)cc2c1-c1nc2c3cccnc3c3ncccc3c2[nH]1
IC50 (second compound 0.0316 µM): 1600 nM | IC50 (second compound 0.1 µM): 1450 nM | IC50 (second compound 0.316 µM): 1450 nM | IC50 (second compound 1 µM): 393 nM | IC50 (second compound 3.16 µM): < 31.6 nM | IC50 (second compound 10 µM): < 31.6 nM | viability, T/C [1]: 109% | viability, T/C [2]: 92.7% | viability, T/C [3]: 94.5% | viability, T/C [4]: 73.4% | viability, T/C [5]: 13.6% | viability, T/C [6]: 18.1% | viability, T/C [7]: 103% | viability, T/C [8]: 90.8% | viability, T/C [9]: 95% | viability, T/C [10]: 67.7% | viability, T/C [11]: 8.04% | viability, T/C [12]: 17.1% | viability, T/C [13]: 88.6% | viability, T/C [14]: 87.4% | viability, T/C [15]: 82.3% | viability, T/C [16]: 67.5% | viability, T/C [17]: 10.2% | viability, T/C [18]: 16.4% | viability, T/C [19]: 52.9% | viability, T/C [20]: 52.9% | viability, T/C [21]: 54.3% | viability, T/C [22]: 35.6% | viability, T/C [23]: 1.25% | viability, T/C [24]: 1.01% | viability, T/C [25]: 2.98% | viability, T/C [26]: 2.55% | viability, T/C [27]: 4.13% | viability, T/C [28]: 1.7% | viability, T/C [29]: 0.26% | viability, T/C [30]: 0.33% | viability, T/C [31]: 1.35% | viability, T/C [32]: 1.38% | viability, T/C [33]: 1.82% | viability, T/C [34]: 1.42% | viability, T/C [35]: 0.24% | viability, T/C [36]: 0.41%
